Common to all, as to format: functional
Settings in all cases: Sus scrofa, LLC-PK1, 24 h; read-out: Activity

Test [1] has as its system LLC-PK1. Briefly: Renoprotective activity against AAPH-induced oxidative damage in pig LLC-PK1 cells assessed as cell viability at 5 ug/ml after 24 hrs by MTT assay relative to control.
Test [2] deals with LLC-PK1. As to the kind of experiment: Renoprotective activity against AAPH-induced oxidative damage in pig LLC-PK1 cells assessed as cell viability at 1 ug/ml after 24 hrs by MTT assay relative to control. A general note: Tetrazolium assays rely on reduction of a dye to a coloured formazan, in cell work by metabolically active cells.
Test [3] has as its system LLC-PK1. Briefly: Renoprotective activity against AAPH-induced oxidative damage in pig LLC-PK1 cells assessed as cell viability at 10 ug/ml after 24 hrs by MTT assay relative to control.

As to `C=C(CCC=C(C)C)[C@H]1CC[C@]2(C)[C@@H]1[C@H](O)C[C@@H]1[C@@]3(C)CC[C@H](O)C(C)(C)[C@@H]3CC[C@]12C`, in the test with LLC-PK1 [1], the viability at 5 µg/mL amounted to 69.9%. Besides, the viability at 1 µg/mL with LLC-PK1 [2] was determined as 61.8%. The viability at 10 µg/mL with LLC-PK1 [3] stood at 85.5%.

In the case of `C=C(CCC=C(C)C)[C@H]1CC[C@]2(C)[C@@H]1[C@H](O)C[C@@H]1[C@@]3(C)CC[C@H](O)C(C)(C)[C@@H]3[C@@H](O)C[C@]12C`, the viability at 5 µg/mL in the test with LLC-PK1 [1] stood at 94.4%. Further, the viability at 1 µg/mL with LLC-PK1 [2] stood at 76.9%. The viability at 10 µg/mL in the test with LLC-PK1 [3] was 101%.

With `CC(C)=CC/C=C(\C)[C@H]1CC[C@]2(C)[C@@H]1[C@H](O)C[C@@H]1[C@@]3(C)CC[C@H](O)C(C)(C)[C@@H]3CC[C@]12C`, in the test with LLC-PK1 [1], the viability at 5 µg/mL was found to be 63.7%. The viability at 1 µg/mL in the test with LLC-PK1 [2] was found to be 60.7%. Besides, in the test with LLC-PK1 [3], the viability at 10 µg/mL was determined as 64.6%.

Take `CC(C)=CC/C=C(\C)[C@H]1CC[C@]2(C)[C@@H]1[C@H](O)C[C@@H]1[C@@]3(C)CC[C@H](O)C(C)(C)[C@@H]3[C@@H](O)C[C@]12C`: in the test on LLC-PK1 [1], the viability at 5 µg/mL was determined as 63.3%. Further, in the test with LLC-PK1 [2], the viability at 1 µg/mL amounted to 61.5%. Also, the viability at 10 µg/mL in the test on LLC-PK1 [3] worked out at 63.3%.

`CC(C)=CCC[C@](C)(O)[C@H]1CC[C@]2(C)[C@@H]1[C@H](O)C[C@@H]1[C@@]3(C)CC[C@H](O)C(C)(C)[C@@H]3[C@@H](O)C[C@]12C`: the viability at 5 µg/mL in the test on LLC-PK1 [1] turned out to be 73.3%. In addition, the viability at 1 µg/mL in the test on LLC-PK1 [2] amounted to 61.1%. Besides, in the test on LLC-PK1 [3], the viability at 10 µg/mL is 85.7%.

For the compound `CC(C)=CCC[C@](C)(O)[C@H]1CC[C@]2(C)[C@@H]1[C@H](O)C[C@@H]1[C@@]3(C)CC[C@H](O)C(C)(C)[C@@H]3CC[C@]12C`, the viability at 5 µg/mL with LLC-PK1 [1] is 72.6%. Besides, the viability at 1 µg/mL in the test with LLC-PK1 [2] was found to be 62.2%. In addition, in the test with LLC-PK1 [3], the viability at 10 µg/mL was found to be 62.6%.
